Test [1] has as its target T1, SiaA-PP2C (Pseudomonas aeruginosa, UniProt Q9I6W0).
T1 construct: gene PA0172; C-terminal PP2C phosphatase domain, residues 386-663, His-tagged (pNIC vectors), E. coli BL21(DE3) Rosetta; ~33 kDa monomer, homodimer (66 kDa by SEC)
The test is described as follows: pNPP phosphatase assay, absorbance […] nm. The class given is biochemical. As to conditions: read-out: % activity remaining at 0.1 mM fumonisin B1.

Test [2] addresses T1, SiaA-PP2C. The test is described as follows: pNPP phosphatase assay, absorbance […] nm. The format is biochemical. The note with it: 20 mM MgCl2, 20 mM Tris-HCl pH 7.5, 150 mM NaCl, 37°C; 0.5-5 mM pNPP.
The target of test [3] is C-terminal part of SiaA including the PP2C-like phosphatase domain (SiaA-PP2C, amino acids 386-663) (Pseudomonas aeruginosa). Put plainly: SEC; size-exclusion chromatography of SiaA-PP2C alone; elution compared with markers. (In general: SEC sorts molecules by how far they enter the pores of the column.)
Test [4] concerns the target SiaC (Pseudomonas aeruginosa). The test is described as follows: SEC; SiaB and SiaC mixed in equal molar ratio, incubated at room temperature for 1 h, without ATP and MgCl2; Hiload 16/600 Superdex 200; peaks analysed by SDS-PAGE.

In general, remaining activity refers to the signal under treatment as a percentage of the control signal. As to `CCCC[C@@H](C)[C@@H](OC(=O)C[C@@H](CC(=O)O)C(=O)O)[C@H](C[C@@H](C)C[C@H](O)CCCC[C@@H](O)C[C@H](O)[C@H](C)N)OC(=O)C[C@@H](CC(=O)O)C(=O)O` [fumonisin B1], in test [1], the remaining activity at 100 µM amounted to 35.5%.

Take `O=[N+]([O-])c1ccc(OP(=O)(O)O)cc1` [para-nitrophenyl phosphate]: the “pNPP phosphatase assay, absorbance 405 nm” value in test [2] is recorded as “phosphatase activity of SiaA-PP2C was assessed using para-nitrophenyl phosphate (pNPP)”. As usually defined, the stoichiometry N is a count of units in the complex or per binding partner. Compound “C-terminal part of SiaA including the PP2C-like phosphatase domain (SiaA-PP2C, amino acids 386-663) (domain or fragment)” gave a stoichiometry N in test [3] of 2. SiaB (enzyme): the stoichiometry N (SiaB:SiaC (2:2 complex)) in test [4] came out at 1.

These data come from article PMC7647112, “The SiaABC threonine phosphorylation pathway controls biofilm formation in response to carbon availability in Pseudomonas aeruginosa” (PLoS ONE, 2020).
